Some results are limits rather than exact numbers.

As usually defined, the melting point is the temperature, or range, at which the solid turns liquid. In turn, `Cc1nc(N(C)C(=O)Nc2ccc(-c3ccccc3)cc2)sc1S(=O)(=O)NCC1CC1` had a melting point of 176 °C.
Under `CCOc1ccc(NC(=O)N(CCOc2ccccc2)c2nc(C)c(S(=O)(=O)NC)s2)cc1` stands 158 °C; under `CCOc1ccc(NC(=O)N(C)c2nc(Cl)c(S(=O)(=O)NC)s2)cc1`, 183 °C.
`Cc1nc(N(C)C(=O)Nc2ccc(N3CCOCC3)cc2)sc1S(=O)(=O)NCc1ccccc1` registered a melting point of 216 °C.
`CCOc1ccc(NC(=O)N(C)c2nc(Cl)c(S(=O)(=O)NCc3ccccc3)s2)cc1`: the melting point was found to be 170 °C.
Then `CCOc1ccc(NC(=O)N(C)c2nc(C)c(S(=O)(=O)NCc3ccccn3)s2)cc1`, with 154 °C; and `CCOc1ccc(NC(=O)N(C)c2ncc(S(=O)(=O)N(C)C)s2)cc1`, with 194 °C; and `CCOc1ccc(NC(=O)N(C)c2nc(C)c(S(=O)(=O)N(C)C)s2)cc1`, with 168 °C.
Under `CCOc1ccc(NC(=O)N(CCCNC(=O)OC(C)(C)C)c2nc(C)c(S(=O)(=O)NCC(F)(F)F)s2)cc1` [136] stands 150 °C; under `Cc1nc(N(C)C(=O)Nc2ccc(OCC(O)CO)cc2)sc1S(=O)(=O)N(C)C` (stereo not shown), 156 °C.
Under `CCOc1ccc(NC(=O)N(Cc2cccnc2)c2nc(C)c(S(=O)(=O)N(C)C)s2)cc1` stands 180 °C; under `COCCN(C(=O)Nc1ccc(-c2ccccc2)cc1)c1nc(C)c(S(N)(=O)=O)s1` [195], 193 °C; under `CCOc1ccc(NC(=O)N(CCCCNC(=O)OC(C)(C)C)c2nc(C)c(S(=O)(=O)NC)s2)cc1`, 148 °C.
`COCCNS(=O)(=O)c1sc(N(C)C(=O)Nc2ccc(-c3ccccc3)cc2)nc1C` gave a melting point of 157 °C.
Under `CC(=O)N1CCc2c(cccc2Oc2ccc(NC(=O)N(C)c3nc(Cl)c(S(=O)(=O)N(C)C)s3)cc2)C1` stands 163 °C; under `CCCN(C(=O)Nc1ccc(-c2ccccc2)cc1)c1nc(C)c(S(=O)(=O)NCCO)s1`, 156 °C; under `CCOc1ccc(NC(=O)N(CCCNC(=O)OC(C)(C)C)c2nc(C)c(S(=O)(=O)NC)s2)cc1`, 146 °C.
Regarding `CCOc1ccc(NC(=O)N(C)c2nc(CC)c(S(=O)(=O)NC)s2)cc1`, the melting point worked out at 210 °C.
Under `CCOc1ccc(NC(=O)N(CCCO)c2nc(C)c(S(=O)(=O)NC)s2)cc1` stands 161 °C; under `CNS(=O)(=O)c1sc(N(CCN(C)C)C(=O)Nc2ccc(N3CCCC3)cc2)nc1C`, 188 °C.
Regarding `CCOc1ccc(NC(=O)N(CCCN(C)C)c2nc(C)c(S(=O)(=O)NC)s2)cc1`, the melting point turned out to be 185 °C.
`Cc1nc(N(C)C(=O)Nc2ccc(N3CCSCC3)cc2)sc1S(=O)(=O)N(C)C` had a melting point of 196 °C.
With `Cc1nc(N(Cc2ccncc2)C(=O)Nc2ccc(N3CCOCC3)cc2)sc1S(N)(=O)=O`, the melting point was found to be 186 °C.
In turn, `CCCOc1ccc(NC(=O)N(C)C2=CC(C)=C(S(=O)(=O)NCCOC)C2)cc1` came in with a melting point of 97 °C.
The compound `COCCN(C(=O)Nc1ccc(N2CCOCC2)cc1)c1nc(C)c(S(N)(=O)=O)s1` had a melting point of 201 °C.
`CCOc1ccc(NC(=O)N(CCCCO)c2nc(C)c(S(=O)(=O)NC)s2)cc1` registered a melting point of 164 °C.
Under `Cc1nc(N(CC2CCCO2)C(=O)Nc2ccc(-c3ccccc3)cc2)sc1S(N)(=O)=O` (stereo not shown) stands 165 °C; under `Cc1nc(N(C)C(=O)Nc2ccc(N3CCOCC3)cc2)sc1S(=O)(=O)N(C)C` [67], 171 °C.
Then `CCOc1ccc(NC(=O)N(CCOC)c2nc(C)c(S(N)(=O)=O)s2)cc1`, with 171 °C; and `CCOc1ccc(NC(=O)N(C)c2nc(C)c(S(=O)(=O)NCc3ccco3)s2)cc1`, with 162 °C.
Then `CNS(=O)(=O)c1sc(N(C)C(=O)Nc2ccc(N3CC=CC3)cc2)nc1C`, with 208 to 209 °C; and `CCOc1ccc(NC(=O)N(C)c2nc(C)c(S(=O)(=O)NCC3CCCO3)s2)cc1` (stereo not shown), with 168 °C; and `CCCN(C(=O)Nc1ccc(COC)cc1)c1nc(C)c(S(=O)(=O)NCC(F)(F)F)s1`, with 143 °C.
Compound `CCOc1ccc(NC(=O)N(Cc2ccncc2)c2nc(C)c(S(=O)(=O)NC)s2)cc1` returned a melting point of 198 °C.
Then `CCCOc1ccc(NC(=O)N(CCOC)c2nc(CC)c(S(N)(=O)=O)s2)cc1`, with 163 °C; and `COCCN(C)S(=O)(=O)c1sc(N(C)C(=O)Nc2ccc(N3CCOCC3)cc2)nc1C`, with 156 °C; and `Cc1nc(N(C)C(=O)Nc2ccc(N3CCOCC3)cc2)sc1S(=O)(=O)N1CCCCC1`, with 206 °C.
Then `CCOc1ccc(NC(=O)N(C)c2nc(C)c(S(=O)(=O)NCC3CC3)s2)cc1`, with 164 °C; and `CCOc1ccc(NC(=O)N(CCC2CCCN2C)c2nc(C)c(S(=O)(=O)NC)s2)cc1` (stereo not shown), with 141 °C; and `CN(C(=O)Nc1ccc(N2CCOCC2)cc1)c1nc(Cl)c(S(=O)(=O)NC2CC2)s1`, with 241 °C.
Under `CCc1nc(N(CCCN(CC)CC)C(=O)Nc2ccc(-c3ccccc3)cc2)sc1S(N)(=O)=O` stands 177 °C.
`CCOc1ccc(NC(=O)OCCN(C(=O)Nc2ccc(OCC)cc2)c2nc(C)c(S(=O)(=O)N(C)C)s2)cc1` had a melting point of 177 °C.
Consider `CCc1nc(N(CCCO)C(=O)Nc2ccc(N3CCCC3)cc2)sc1S(=O)(=O)NC`, for which the melting point stood at 161 °C.
Consider `CCOc1ccc(NC(=O)N(CCNC(=O)OC(C)(C)C)c2nc(C)c(S(=O)(=O)N(C)C)s2)cc1`, for which the melting point amounted to 164 °C.
As to `CNS(=O)(=O)c1sc(N(CC2CCCO2)C(=O)Nc2ccc(-c3ccccc3)cc2)nc1C` (stereo not shown), the melting point came out at 178 °C.
Regarding `CC(=O)Nc1cc(N2CCCC2)ccc1NC(=O)N(C)c1nc(C)c(S(=O)(=O)N(C)C)s1` [168], the melting point was 185 to 187 °C (dec.).
Then `Cc1nc(N(C)C(=O)Nc2ccc(-n3cccc3)cc2)sc1S(=O)(=O)NC1CC1`, with 194 °C; and `CNS(=O)(=O)c1sc(N(CCCO)C(=O)Nc2ccc(N3CCOCC3)cc2)nc1C`, with 181 °C.
For `Cc1nc(N(C)C(=O)Nc2ccc(N3CCCCC3)cc2)sc1S(=O)(=O)NC1CC1`, the melting point amounted to 198 °C.
Consider `CN(C(=O)Nc1ccc(OC(CF)CF)cc1)c1nc(Cl)c(S(=O)(=O)N(C)C)s1`, for which the melting point stood at 164 °C.
`CCCN(C(=O)Nc1ccc(N2CCOCC2)cc1)c1nc(C)c(S(=O)(=O)N(C)C)s1`: the melting point came out at 161 °C.
Then `CCc1nc(N(C)C(=O)Nc2ccc(N3CCCC3)cc2)sc1S(=O)(=O)NC`, with 217 °C.
Under `CCOc1ccc(NC(=O)N(C)c2nc(Cl)c(S(=O)(=O)N(C)C)s2)cc1` stands 215 °C; under `CCOc1ccc(NC(=O)Nc2nc(C)c(S(=O)(=O)NCCOC)s2)cc1`, 137 °C.
In the case of `CCCC(=O)Nc1cc(N2CCCC2)ccc1NC(=O)N(C)c1nc(C)c(S(=O)(=O)N(C)C)s1`, the melting point came out at 164 °C.
In turn, `CCOc1ccc(NC(=O)Nc2nc(C)c(S(=O)(=O)N3CCCC3)s2)cc1` returned a melting point of 198 °C.
On to `Cc1nc(NC(=O)Nc2ccc(-c3ccccc3)cc2)sc1S(=O)(=O)N(C)C`, for which the melting point was > 250 °C.
In the case of `CCOc1ccc(NC(=O)N(Cc2ccccc2)c2nc(C)c(S(=O)(=O)NC3CC3)s2)cc1`, the melting point was 178 °C.
Then `CNS(=O)(=O)c1sc(N(CCN(C)C)C(=O)Nc2ccc(-c3ccccc3)cc2)nc1C`, with 154 °C.
In turn, `CCOc1ccc(NC(=O)N(CCCCNC(=O)OC(C)(C)C)c2nc(C)c(S(=O)(=O)N(C)C)s2)cc1` returned a melting point of 152 °C.
`CCOc1ccc(NC(=O)N(CCc2ccccc2)c2nc(C)c(S(=O)(=O)NCc3ccccc3)s2)cc1` showed a melting point of 156 °C.
As for `Cc1nc(N(C)C(=O)Nc2ccc(-c3ncon3)cc2)sc1S(=O)(=O)N(C)C`, the melting point fell in the range of 184 to 186 °C.
The compound `CN(C(=O)Nc1ccc(N2CCOCC2)cc1)c1nc(Cl)c(S(=O)(=O)N(C)C)s1` [3] gave a melting point of 197 °C.
`CCCCOc1ccc(NC(=O)N(C)c2nc(Cl)c(S(=O)(=O)N(C)C)s2)cc1` registered a melting point of 140 °C.
Then `CCOC(=O)N1CC2CCN(c3ccc(NC(=O)N(C)c4nc(S(=O)(=O)NC5CC5)c(C)s4)cc3)C2C1` (stereo not shown), with 140 °C; and `Cc1nc(N(C)C(=O)Nc2ccc(N3CCOCC3)cc2)sc1S(N)(=O)=O`, with 225 °C; and `CNS(=O)(=O)c1sc(N(C)C(=O)Nc2ccc(-c3cccc(OC)c3)cc2)nc1C`, with 178 °C.
`CNS(=O)(=O)c1sc(N(Cc2ccccn2)C(=O)Nc2ccc(N3CCOCC3)cc2)nc1C` came in with a melting point of 206 °C.
With `CCOc1ccc(NC(=O)N(C)c2nc(CC)c(S(=O)(=O)N(C)C)s2)cc1`, the melting point came out at 176 °C.
Under `CCCN(C(=O)Nc1ccc(-c2ccccc2)cc1)c1nc(C)c(S(=O)(=O)NC)s1` stands 156 °C; under `CC(=O)Nc1cccc(Oc2ccc(NC(=O)N(C)c3nc(Cl)c(S(=O)(=O)N(C)C)s3)cc2)c1`, 219 °C; under `CCn1c(=O)oc2cc(NC(=O)N(C)c3nc(Cl)c(S(=O)(=O)N(C)C)s3)ccc21`, 232 °C.
`CCOc1ccc(NC(=O)N(CCCO)c2nc(C)c(S(=O)(=O)N(C)C)s2)cc1` had a melting point of 147 °C.
Then `C=C(Nc1ccc(N2CCOCC2)cc1)Nc1nc(C)c(S(=O)(=O)N(C)C)s1`, with 188 °C.
In the case of `Cc1nc(N(C)C(=O)Nc2ccc(OCC(C)(C)C)cc2)sc1S(=O)(=O)N(C)C`, the melting point came out at 158 °C.
Turning to `CCOc1ccc(NC(=O)N(C)c2nc(C)c(S(=O)(=O)NCc3cccc(OC)c3)s2)cc1`, the melting point was 134 °C.
In the case of `CCOc1ccc(NC(=O)N(CCCN)c2nc(C)c(S(=O)(=O)NC)s2)cc1.Cl`, the melting point came out at 150 °C.
Then `CCOc1ccc(NC(=O)N(CCN2CCOCC2)c2nc(C)c(S(=O)(=O)N(C)C)s2)cc1`, with 204 °C; and `CCOc1ccc(NC(=O)N(Cc2ccncc2)c2nc(C)c(S(=O)(=O)NC3CC3)s2)cc1`, with 200 °C.

The values are drawn from patent US6500817B1, “Thiazolyl urea derivatives and their utilization as antiviral agents” (Bayer Aktiengesellschaft, priority 1999, dated 2002).
